Source: patent US20230106519A1, “GOLD(III)-BIGUANIDE PRODRUGS, METHODS OF PREPARATION AND USES THEREOF” (National University of Singapore, priority 2020, published 2023)
“And” between values parts separate entries of the source, which are not always exact repeats. Equal values may be shown once.

Legend:
[1] = Reactivity towards glutathione, ligand release (HR-MS, UV-vis); type: physicochemical
Description: NMR- and MS-based stability studies.
Intriguingly, the reactivity of Au^III-metformin complexes towards GSH was drastically different despite their similar structures.

[2] = Experimental: (§1) Animal experiments: 6-week-old female athymic nude mice were purchased from Invigo. Animals were housed in animal-holding units at Center for Comparative Medicine, Northwestern University in a pathogen-free environment at constant temperature in a 12/12-hour light/dark cycle. All animal procedures were carried out in accordance with a protocol approved by the Institutional Animal Care and Use Committee, Protocol number: IS00002999. Animals were acclimatized for 2 weeks following arrival before the beginning of experiments. Mice were allowed free access to food and water. […] MDA-MB-231 cells expressing firefly luciferase were collected by trypsinization and mixed with Matrigel (1:1) for fat pad injections. The MDA-MB-231 cell/matrigel mixture (100 μI) was injected into the fat pad of the fourth mammary glands on both sides of 6-week-old female athymic nude-Foxn1^nu mice (Envigo) at 2.5×10^5 cells/gland under ketamine/xylazine anesthesia (50-100/5-10 mg/kg). Ketaprofen and Buprenophrine SR were injected subcutaneously for pain management at 2-5 mg/kg and 0.5-1 mg/kg, respectively. The growth of tumors was monitored by live animal imaging. Once tumors became palpable (week 2 after tumor implantation), treatment was initiated. Animals were separated into two groups (7 mice in each group) and tumor dimensions were measured using a caliper by width×length (mm^2). […] Animals were sacrificed on week 6. Animals were controlled for distress development. Their weight changes were monitored every 2-3 days for 6 weeks. […] Statistical analysis was done by Student's unpaired T-test and One-way Anova test with post-hoc Dunnett test using GraphPad Prism 9 software.
The tolerability of the chosen dose level was judged based on the weight loss and clinical score.

[3] = tested on: MDA-MB-231 tumors
Experimental: as §1
Luciferase-transfected MDA-MB-231 cells were injected into […] 2 fat pads near inguinal nipples and tumor growth was controlled by bioluminescent imaging.

[4] = tested on: MDA-MB-231 cells
Experimental: (§2) Inhibition of cell viability assay. The cytotoxicity of the compounds was determined by colorimetric MTT assay. The cells were harvested from culture flasks by trypsinization and seeded into Cellstar 96-well microculture plates at the seeding density of 6000 cells per well (6×10^4 cells/mL). TAMH and AC10 cells were seeded at 12000 and 5000 cells per well, respectively. After cells were allowed to resume exponential growth for 24 hours, they were exposed to drugs at different concentrations in media for 72 hours. The drugs were diluted in complete medium at the desired concentration and added to each well (100 μL) and serially diluted to other wells. After exposure for 72 hours, the media was replaced with MTT in media (5 mg/mL, 100 μL) and incubated for additional 45 minutes. Subsequently, the medium was aspirated and the purple formazan crystals formed in viable cells were dissolved in DMSO (100 μL). Optical densities were measured at 570 nm using the BioTek H1 Synergy microplate reader. […] Evaluation was based on means from at least three independent experiments, each comprising six replicates per concentration level. For experiments with inhibitors, MDA-MB-231 cells were seeded at the seeding density of 8000 cells per well (8×10^4 cells/mL).

[5] = tested on: MDA-MB-231 cells; remark: listed apart in the source
Experimental: Mitochondrial bioenergetics (MitoStress assay): Oxygen Consumption Rate (OCR) was monitored by using Seahorse XF^e24 Cell MitoStress Test Kit (Seahorse Bioscience). Prior to the assay, XF sensor cartridges were hydrated. MDA-MB-231 cells were seeded onto XF^e24-well cell culture plates at a density of 4×10^4 cells/well in 250 μL DMEM complete growth medium and then incubated for 48 h at 37° C. in 5% CO2 incubator. The cells were subsequently exposed to compounds of interest at different concentrations for 24 hours. The wells were washed with 250 μL of pre-warmed Seahorse XF DMEM media, supplemented with 10 mM glucose, 1 mM sodium pyruvate and 2 mM glutamine, pH 7.4 and replaced with 525 μL of this media. The plate was incubated at 37° C. in a non-CO2 incubator for 1 hour before the measurement. Three baseline measurements of OCR were recorded and 1 μM of olygomycin (ATP synthase complex inhibitor), 1 μM of FCCP (ATP synthesis uncoupler trifluorocarbonylcyanide phenylhydrazone) and a mixture of 0.5 μM of antimycin-A (inhibitor of complex III) and 0.5 μM of rotenone (inhibitor of electron transfer from Fe-S center of complex I to ubiquinone) were added in sequence. OCR was measured using Seahorse XF^e24 Cell Bioanalyzer (Seahorse Biosciences). The media was removed from the wells and 60 μL of 0.1 M NaOH was added. After vigorous pipetting, the protein content was quantified by BCA assay and OCR was normalized per protein content.

[6] = tested on: MDA-MB-231 cells; remark: listed apart in the source
Experimental: Glycolysis Stress Test assay: Extracellular acidification rate (ECAR) was monitored by using Seahorse XF^e24 Glycolysis Stress Test Kit (Seahorse Bioscience). Prior to the assay, XF sensor cartridges were hydrated. MDA-MB-231 cells were seeded onto XF^e24-well cell culture plates at a density of 4×10^4 cells/well in 250 μL DMEM complete growth medium and then incubated for 48 hours at 37° C. in 5% CO2 incubator. The cells were subsequently exposed to compounds of interest at different concentrations for 24 hours. The wells were washed with 250 μL of pre-warmed Seahorse XF DMEM media, supplemented with 100 mM glutamine, pH 7.4 and replaced with 525 μL of this media. The plate was incubated at 37° C. in a non-CO2 incubator for 1 hour before the measurement. Three baseline measurements of ECAR were recorded and 10 mM of glucose, 1 μM of olygomycin and 100 mM of 2-deoxyglucose (2-DG) were added in sequence. ECAR was measured using Seahorse XF^e24 Cell Bioanalyzer (Seahorse Biosciences). The media was removed from the wells and 60 μL of 0.1 M NaOH was added. After vigorous pipetting, the protein content was quantified by BCA assay and OCR was normalized per protein content.

[7] = tested on: BiP, CHOP, p-elF2α; conditions: 0.5 and 2EC50, 2, 6 and 24 hours
Experimental: (§3) Western blotting. MDA-MB-231 cells were seeded into Cellstar 6-well plates (Greiner Bio-One) at a density of 60×10^4 cells/well (2 mL per well). After the cells were allowed to resume exponential growth for 24 hours, they were exposed to compounds of interest at various concentrations for 2, 6 and 24 hours. The cells were washed twice with PBS and lysed with RIPA buffer (50-100 μL) and kept for 5-10 minutes at 4° C. The samples were sonicated in ice bath (3 times for 30 seconds). The supernatant was then collected after centrifugation (1.3×10^4 rpm, 4° C. for 15 minutes) and total protein content of each sample was quantified via Bradford's assay. Equal quantities of protein (50 μg) were reconstituted in loading buffer (5× Laemmli Buffer with 5% DTT) and heated at 100° C. for 10 minutes. Subsequently, the protein mixtures were resolved on a 8%, 10% or 12% SDS-PAGE gel by electrophoresis (90 V for 30 minutes followed by 120 V for 60 minutes) and transferred onto a nitrocellulose membrane (200 mA for 2 hours). The protein bands were visualised with Ponceau S stain solution and the nitrocellulose membranes were cut into strips based on the protein ladder. The membranes were washed with a TBS-T wash buffer (0.1% Tween-20 in 1×PBS) 3 times for 5 minutes. […] Immune complexes were detected with Luminata HRP substrates and analysed using enhanced chemiluminescence imaging. […]

[8] = tested on: c-Jun N-terminal kinase (JNK); conditions: MDA-MB-231, apparent after 24 hours
Experimental: as §3

[9] = tumor-bearing mice
Experimental: Organ distribution studies: At the experimental endpoint, the hearts were perfused with PBS immediately before the excision of the organs. Brain, liver, kidney, spleen, heart, lung, bone and tumor tissues were collected from each mouse and flash-frozen in liquid nitrogen. The organs of the vehicle-treated mouse were used for the measurements of the background. The organs were lyophilized for 4 days, weighed, mechanically minced and digested in 100 μl of ultrapure 65% HNO3 at 105° C. for 3 days. The resulting solution was diluted to 2% v/v HNO3 with ultrapure Milli-Q water. Gold content was measured by ICP-MS as described above.
Additionally, the Au biodistribution across various organs in tumor-bearing mice was assessed.

[10] = tested on: A2780 (ovarian carcinoma); assay: MTT cytotoxicity assay, A2780; conditions: read-out: EC50 A2780; MTT assay, exposure time 72 hours
Experimental: (§4) Human ovarian carcinoma cells A2780 and A2780cisR, and human breast adenocarcinoma MDA-MB-231 cells, murine hepatocytes TAMH and human cardiomyocytes AC10 were obtained from ATCC. […] The stock of cisplatin was commercially available clinical grade solution in saline buffer.
(§5) Inhibition of cell viability assay. The cytotoxicity of the compounds was determined by colorimetric MTT assay. The cells were harvested from culture flasks by trypsinization and seeded into Cellstar 96-well microculture plates at the seeding density of 6000 cells per well (6×10^4 cells/mL). TAMH and AC10 cells were seeded at 12000 and 5000 cells per well, respectively. After cells were allowed to resume exponential growth for 24 hours, they were exposed to drugs at different concentrations in media for 72 hours. The drugs were diluted in complete medium at the desired concentration and added to each well (100 μL) and serially diluted to other wells. After exposure for 72 hours, the media was replaced with MTT in media (5 mg/mL, 100 μL) and incubated for additional 45 minutes. Subsequently, the medium was aspirated and the purple formazan crystals formed in viable cells were dissolved in DMSO (100 μL). Optical densities were measured at 570 nm using the BioTek H1 Synergy microplate reader. […] Evaluation was based on means from at least three independent experiments, each comprising six replicates per concentration level.

[11] = tested on: LC3-II, p62, Ulk1 (Ser757); assay: Western blot, autophagy markers
Experimental: Western blotting. MDA-MB-231 cells were seeded into Cellstar 6-well plates (Greiner Bio-One) at a density of 60×10^4 cells/well (2 mL per well). After the cells were allowed to resume exponential growth for 24 hours, they were exposed to compounds of interest at various concentrations for 2, 6 and 24 hours. The cells were washed twice with PBS and lysed with RIPA buffer (50-100 μL) and kept for 5-10 minutes at 4° C. The samples were sonicated in ice bath (3 times for 30 seconds). The supernatant was then collected after centrifugation (1.3×10^4 rpm, 4° C. for 15 minutes) and total protein content of each sample was quantified via Bradford's assay. Equal quantities of protein (50 μg) were reconstituted in loading buffer (5× Laemmli Buffer with 5% DTT) and heated at 100° C. for 10 minutes. Subsequently, the protein mixtures were resolved on a 8%, 10% or 12% SDS-PAGE gel by electrophoresis (90 V for 30 minutes followed by 120 V for 60 minutes) and transferred onto a nitrocellulose membrane (200 mA for 2 hours). The protein bands were visualised with Ponceau S stain solution and the nitrocellulose membranes were cut into strips based on the protein ladder. The membranes were washed with a TBS-T wash buffer (0.1% Tween-20 in 1×PBS) 3 times for 5 minutes. Subsequently, they were blocked in 5% BSA (w/v) in wash buffer for 1 hour and incubated with the appropriate primary antibodies in 5% BSA (w/v) in wash buffer at 4° C. overnight. The membranes were washed with a wash buffer 3 times for 7 minutes. After incubation with HRP-conjugated secondary antibodies in 2% BSA (w/v) in wash buffer (room temperature, 2 hours), the membranes were washed with a wash buffer 4× for 5 minutes. Immune complexes were detected with Luminata HRP substrates and analysed using enhanced chemiluminescence imaging. Actin was used as a loading control. […]
One of the hallmarks of autophagy was the conversion of cytosolic LC3-I to autophagosome-bound LC3-II which was monitored by Western Blotting.

[12] = tested on: A2780cisR (ovarian carcinoma); assay: MTT cytotoxicity assay, A2780cisR
Experimental: as §4, §5

[13] = tested on: MDA-MB-231 (breast adenocarcinoma); assay: MTT cytotoxicity assay, MDA-MB-231; conditions: read-out: EC50 MDA-MB-231; MTT assay, exposure time 72 hours
Experimental: as §4, §5

[14] = tested on: MDA-MB-231 cells; assay: Cellular accumulation of Au by ICP-MS; conditions: ICP-MS after 24 hour exposure at 1.4 μM
Experimental: Cellular accumulation of Au complexes was determined in MDA-MB-231 cells. Cells were seeded into Cellstar 6-well plates (Greiner Bio-one) at a density of 60×10^4 cells/well (2 mL per well). After the cells were allowed to resume exponential growth for 24 hours, they were exposed to compounds of interest at various concentrations for 24 hours at 37° C. The cells were washed twice with 1 mL of PBS and lysed with RIPA lysis buffer for 5-10 min at 4° C. The cell lysates were scraped from the wells and transferred to separate 1.5 mL microtubes. The supernatant was then collected after centrifugation (13000 rpm, 4° C. for 15 minutes) and total protein content of each sample was quantified via Bradford's assay. […] The resulting solution was diluted to 1 mL (2-4% v/v HNO3) with ultrapure Milli-Q water. Au content of each sample was quantified by ICP-MS. Re was used as an internal standard. […] Metal standards for calibration curve (0, 0.5, 1, 2, 5, 10, 20, 40 ppb) were freshly prepared before each measurement. All readings were made in triplicates in He mode.

[15] = tested on: TAMH (transforming growth factor-a transgenic mouse hepatocytes); assay: MTT toxicity assay in hepatocytes TAMH; conditions: read-out: EC50 TAMH, exposure time 72 hours
Experimental: (§6) Cell lines and culture conditions. Human ovarian carcinoma cells A2780 and A2780cisR, and human breast adenocarcinoma MDA-MB-231 cells, murine hepatocytes TAMH and human cardiomyocytes AC10 were obtained from ATCC.
Inhibition of cell viability assay. The cytotoxicity of the compounds was determined by colorimetric MTT assay. The cells were harvested from culture flasks by trypsinization and seeded into Cellstar 96-well microculture plates at the seeding density of 6000 cells per well (6×10^4 cells/mL). TAMH and AC10 cells were seeded at 12000 and 5000 cells per well, respectively. After cells were allowed to resume exponential growth for 24 hours, they were exposed to drugs at different concentrations in media for 72 hours. The drugs were diluted in complete medium at the desired concentration and added to each well (100 μL) and serially diluted to other wells. After exposure for 72 hours, the media was replaced with MTT in media (5 mg/mL, 100 μL) and incubated for additional 45 minutes. Subsequently, the medium was aspirated and the purple formazan crystals formed in viable cells were dissolved in DMSO (100 μL). Optical densities were measured at 570 nm using the BioTek H1 Synergy microplate reader. […] Evaluation was based on means from at least three independent experiments, each comprising six replicates per concentration level. […]

[16] = tested on: AC10 (human ventricular cardiomyocytes); assay: MTT toxicity assay in cardiomyocytes AC10; conditions: read-out: EC50 AC10; MTT assay, exposure time 72 hours
Experimental: as §6, §2

[17] = molecular target: T1, rat liver TrxR (Rattus norvegicus, UniProt O89049); assay: Thioredoxin reductase inhibition, DTNB reduction assay; conditions: read-out: IC50 TrxR; DTNB reduction assay, exposure time 30 min
T1 sequence (O89049 1-499): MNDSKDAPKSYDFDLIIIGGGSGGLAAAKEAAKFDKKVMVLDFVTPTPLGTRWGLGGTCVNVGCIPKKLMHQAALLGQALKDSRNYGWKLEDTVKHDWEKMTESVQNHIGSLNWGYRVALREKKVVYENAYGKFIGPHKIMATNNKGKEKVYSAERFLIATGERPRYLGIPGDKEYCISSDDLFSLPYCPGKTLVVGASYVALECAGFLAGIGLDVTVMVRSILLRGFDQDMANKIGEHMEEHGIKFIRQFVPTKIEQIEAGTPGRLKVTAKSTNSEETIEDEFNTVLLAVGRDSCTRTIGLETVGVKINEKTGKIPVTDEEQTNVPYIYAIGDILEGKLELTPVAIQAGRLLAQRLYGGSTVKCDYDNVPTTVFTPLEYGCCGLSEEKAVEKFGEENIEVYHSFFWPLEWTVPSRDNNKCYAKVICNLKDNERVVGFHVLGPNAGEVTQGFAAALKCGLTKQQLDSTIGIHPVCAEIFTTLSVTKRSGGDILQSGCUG
Experimental: Thioredoxin reductase inhibition assay. Assay was performed according to the protocol provided by the manufacturer. […] Compounds of interest were serially diluted at the separate 96-well plate and 4 μl of each concentration was added to the appropriate wells. The reaction mixture was incubated with gentle shaking (room temperature, 30 minutes). Subsequently, 6 μl of DNTB (100 mM) was added and incubated for an additional 3 minutes.
Compounds of interest at six different concentrations were incubated with the isolated rat liver TrxR enzyme in the presence of NADPH for 30 minutes, followed by 2 minutes incubation with the DNTB reagent.

[18] = tested on: MDA-MB-231 tumors; assay: Histopathological examination of H&E-stained tumors (QuPath)
[19] = molecular target: insulin receptor (IR) (Homo sapiens, UniProt P06213); assay: Kinase screening, radioactive 33P-ATP filter-binding assay, IR; conditions: 10 μM of 3met
insulin receptor (IR), sequence (P06213 1001-1382 limits assumed): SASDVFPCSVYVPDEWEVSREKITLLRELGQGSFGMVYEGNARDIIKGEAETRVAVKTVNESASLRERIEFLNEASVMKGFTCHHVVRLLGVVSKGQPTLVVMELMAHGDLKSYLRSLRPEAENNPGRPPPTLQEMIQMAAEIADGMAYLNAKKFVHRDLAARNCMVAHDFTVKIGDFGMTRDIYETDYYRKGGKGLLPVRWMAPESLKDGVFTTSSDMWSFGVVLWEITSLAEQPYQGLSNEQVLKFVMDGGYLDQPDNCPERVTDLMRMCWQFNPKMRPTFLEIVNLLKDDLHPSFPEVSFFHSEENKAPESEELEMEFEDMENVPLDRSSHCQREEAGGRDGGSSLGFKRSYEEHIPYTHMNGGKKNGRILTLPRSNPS
Experimental: (§7) Kinase screening was performed at the International Centre for Kinase profiling (University of Dundee, UK) according to literature procedure (Bain J, Plater L, Elliott M, Shpiro N, Hastie C J, McLauchlan H, et al. The selectivity of protein kinase inhibitors: a further update. Biochem J 2007; 408:297-315).

[20] = Stability in ammonium carbonate buffer by high resolution ESI-MS; conditions: ammonium carbonate buffer pH 7.4, 37° C., 1, 3 and 24 hours
Experimental: NMR and mass spectrometric (MS) methods were employed to characterize the stability of Au complexes in DMSO and aqueous media. ^1H NMR stability studies were performed over the period of 6-10 days in d^6-DMSO and D2O (1met*).

[21] = molecular target: protein kinase B beta (PKBβ) (Homo sapiens, UniProt P31751, S474D); assay: Kinase screening, radioactive 33P-ATP filter-binding assay, PKBβ; conditions: 10 μM of 3met
protein kinase B beta (PKBβ), sequence (P31751 120-481 S474D limits assumed): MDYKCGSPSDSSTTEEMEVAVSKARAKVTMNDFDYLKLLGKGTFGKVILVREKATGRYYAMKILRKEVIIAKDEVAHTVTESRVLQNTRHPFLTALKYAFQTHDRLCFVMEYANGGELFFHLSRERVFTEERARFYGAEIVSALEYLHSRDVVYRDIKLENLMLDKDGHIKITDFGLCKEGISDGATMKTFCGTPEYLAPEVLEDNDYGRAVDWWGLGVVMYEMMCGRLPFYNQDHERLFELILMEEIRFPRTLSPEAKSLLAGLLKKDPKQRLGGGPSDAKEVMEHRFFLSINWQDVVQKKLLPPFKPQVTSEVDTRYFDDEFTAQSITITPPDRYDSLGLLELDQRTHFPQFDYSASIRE
Experimental: as §7

[22] = molecular target: extracellular signal-regulated kinase 1 (ERK1) (Homo sapiens, UniProt P27361); assay: Kinase screening, radioactive 33P-ATP filter-binding assay, ERK1; conditions: 10 μM of 3met
extracellular signal-regulated kinase 1 (ERK1), sequence (P27361 whole entry): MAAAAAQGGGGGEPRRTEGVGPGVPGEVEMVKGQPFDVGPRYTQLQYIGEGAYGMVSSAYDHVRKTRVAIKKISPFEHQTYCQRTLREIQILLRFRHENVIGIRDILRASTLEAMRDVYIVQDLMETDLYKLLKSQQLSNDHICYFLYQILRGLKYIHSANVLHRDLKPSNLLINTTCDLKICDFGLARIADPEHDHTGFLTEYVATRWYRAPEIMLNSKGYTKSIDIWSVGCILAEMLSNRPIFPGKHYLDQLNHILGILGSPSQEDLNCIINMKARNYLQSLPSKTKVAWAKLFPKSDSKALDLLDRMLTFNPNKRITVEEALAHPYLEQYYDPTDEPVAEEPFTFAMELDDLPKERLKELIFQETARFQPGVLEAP
Experimental: as §7

Compound: CN(C)C1=[NH+][Au-]2([NH]C(N)=N1)[c]1ccccc1C(=O)c1cccc[n+]12.F[P-](F)(F)(F)(F)F (stereo not shown) [Compound 3met]
- decrease of peak area of 3met+ (M+) signal ([1]; 1 eq. GSH, ammonium carbonate): more than 27 fold
- increase of peak area of metformin signal (m/z 130.1078) ([1]; 1 eq. GSH, ammonium carbonate, after 3 hours): more than 5 fold
- reactivity towards GSH / ligand release in words ([1]; with GSH, HR-MS and UV-vis): time-dependent release of metformin
- weight loss ([2]; 20 mg/kg, day 6): 11% and 10%
- dose-limiting toxicity ([2]; histopathological changes): kidney and liver toxicity
- maximum tolerated dose (MTD) ([2]; intraperitoneal route, daily for 4-5 days): 15 mg/kg
- tumor growth ([3]; 15 mg/kg i.p., weeks 3, 4 and 5, vs vehicle): no tumor growth was observed after week 3
- deaths in drug-treated group ([3]; 15 mg/kg, 7 mice per group): Two mice died
- kidney histopathology ([3]; H&E, endpoint, 5 weeks): distorted glomeruli, dilated tubules, edema exudate, light necrosis
- liver histopathology ([3]; H&E, endpoint, 5 weeks): vacualization, fatty changes, periportal lymphoid infiltration and expansion of Disse space in A and B, and focal necrosis in C
- increase of 3met activity in presence of 3-MA ([4]; 3-methyladenine 2 mM, 24 hours): more than 2 times
- abrogation of 3met-induced cell death by cycloheximide ([4]; CHX 12.5 μM, 24 hours): ≈ 3.5 times
- abrogation of 3met activity by SP600125 ([4]; JNK inhibitor SP600125 20 μM): ≈ 1.7 fold
- non-mitochondrial respiration ([5]; 24 hours): not significantly inhibited
- mitochondrial bioenergetic parameters (OCR) ([5]; 24 hours, increasing concentrations): dose-dependent progressive decrease of all mitochondrial bioenergetic parameters
- concentration significantly inhibiting mitochondrial respiration ([5]; as low as): 1.5 µM
- glycolytic parameters (ECAR), low concentration ([6]; 0.05 μM, 24 hours): significant increase of all glycolytic parameters
- glycolytic reserve (ECAR), higher concentration ([6]; 1.5 μM, 24 hour exposure): significantly declined glycolytic reserve
- CHOP expression over time [7]: time-dependent increase of CHOP
- JNK phosphorylation [8]: JNK phosphorylation already at 0.5 EC50 drug concentrations
- Au biodistribution in words [9]: selectively accumulated in tumors
- EC50 [10]: 150 ± 30 nM
- Ulk1 phosphorylation at Ser757 ([11]; 2EC50, 24 hours): marked dephosphorylation of Ulk1 at Ser757 site
- p62 levels ([11]; MDA-MB-231): increase of p62 levels
- LC3-II expression ([11]; MDA-MB-231, concentration- and time-dependent): significantly enhanced the expression of LC3-II
- RF (Resistance Factor) ([12]; IC50 (A2780cisR)/IC50 (A2780)): 4
- EC50 ([12]; read-out: EC50 A2780cisR, MTT assay, exposure time 72 hours): 530 ± 70 nM
- EC50 [13]: 720 ± 80 nM
- Cellular accumulation MDA-MB-231 [14]: 1.37 ± 0.48 nmol Au/mg protein
- EC50 [15]: 2700 ± 700 nM
- EC50 [16]: 7.4 ± 3 µM
- IC50 [17]: 1.3 ± 0.3 nM
- inflammatory cells infiltration of tumors ([18]; H&E): marked inflammatory cells infiltration
- Area ([18]; single tumor image): 23769502 μm^2 and 27637537.7 μm^2 and 28709913 μm^2
- Necrosis % ([18]; single tumor image): 32.52% and 41% and 26.24%
- Necrosis area ([18]; single tumor image): 7.73 mm^2 and 11.33 mm^2 and 7.533 mm^2
- Perimeter ([18]; single tumor image): 20891.3 μm and 25672.2 μm and 21813.3 μm
- Tumor % ([18]; single tumor image): 60.11% and 34.58% and 66.37%
- Tumor area ([18]; single tumor image): 14.29 mm^2 and 9.556 mm^2 and 19.05 mm^2
- inhibition of IR kinase [19]: 70%
- stability, detection of molecular ion [M]+ [20]: stable for 24 hours
- inhibition of PKBβ [21]: 100%
- inhibition of ERK1 [22]: 90%
